The molecules below were run against Receptor-type tyrosine-protein phosphatase R (Homo sapiens) (UniProt Q15256) (assay: PTPRR phosphatase inhibition, biochemical, recombinant human enzyme, DiFMUP fluorescence (AID 405)). Conditions: DiFMUP fluorescence phosphatase assay.
Chain of Receptor-type tyrosine-protein phosphatase R (Homo sapiens) (Q15256 whole entry, looked up): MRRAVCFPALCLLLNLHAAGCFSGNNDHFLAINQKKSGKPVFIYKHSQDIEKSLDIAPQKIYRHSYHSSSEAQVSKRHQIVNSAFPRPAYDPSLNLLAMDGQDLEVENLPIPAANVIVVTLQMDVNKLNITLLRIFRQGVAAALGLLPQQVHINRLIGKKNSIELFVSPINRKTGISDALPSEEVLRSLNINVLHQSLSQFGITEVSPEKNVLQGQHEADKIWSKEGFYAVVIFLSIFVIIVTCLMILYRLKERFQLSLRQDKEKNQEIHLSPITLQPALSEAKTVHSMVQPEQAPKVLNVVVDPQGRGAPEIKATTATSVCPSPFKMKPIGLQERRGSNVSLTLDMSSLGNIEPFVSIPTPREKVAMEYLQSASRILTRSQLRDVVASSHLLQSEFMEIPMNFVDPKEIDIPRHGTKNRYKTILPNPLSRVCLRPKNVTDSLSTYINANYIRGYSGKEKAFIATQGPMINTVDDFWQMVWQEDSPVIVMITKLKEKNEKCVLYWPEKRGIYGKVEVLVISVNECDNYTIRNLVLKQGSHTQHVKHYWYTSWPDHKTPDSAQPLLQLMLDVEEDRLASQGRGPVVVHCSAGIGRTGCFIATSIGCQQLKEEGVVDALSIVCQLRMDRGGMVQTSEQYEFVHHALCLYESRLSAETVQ

Row | SMILES | IC50
1 | Cc1ccc(C)n1-c1ccc(C(=O)O)cc1O | 13.7 µM
2 | O=C(O)c1ccc(O)c(C=Nc2ccc3oc(-c4ccc(F)cc4Cl)nc3c2)c1 | 7.3 µM
3 | Cc1ccc2nc(-c3cc(N=Cc4cc(C(=O)O)ccc4O)ccc3O)[nH]c2c1 | 25.6 µM
4 | NC1=NC(=O)/C(=C/C=C/c2ccc([N+](=O)[O-])o2)S1 | 2.3 µM
5 | CC(=O)c1ccc2c(c1)C1C=CCC1C(C(=O)O)N2 (configuration not stated) | 6.7 µM
6 | Cc1ccc(C)n1-c1cc(C(=O)O)ccc1O | 3.9 µM
7 | COc1ccc(-c2nc3cc(N=Cc4cc(C(=O)O)ccc4O)ccc3o2)cc1 | 15.9 µM

Same assay, conditions: DiFMUP fluorescence phosphatase assay, at 50 µM, stronger effect = higher value

Row | SMILES | inhibition
8 | O=C(O)c1ccc(O)c(N2C(=O)Nc3ccccc3N2O)c1 | 76%
9 | OO.OO.[K+].[O]=[V].c1ccc(-c2ccccn2)nc1 | 98%
10 | O=C1NC(=S)NC(=O)C1=C/C=C/c1ccco1 | 100%
11 | CC(C)(c1ccc(NS(=O)(=O)C(F)(F)F)cc1)c1ccc(C(C)(C)c2ccc(NS(=O)(=O)C(F)(F)F)cc2)cc1 | 91%
12 | Cc1ccc2oc(-c3cccc(N=Cc4cc(C(=O)O)ccc4O)c3)nc2c1 | 51%
13 | O=C(O)c1ccc(O)c(C=Nc2ccc3oc(-c4ccccc4)nc3c2)c1 | 66%
14 | O=C(O)c1ccc(O)cn1.OO.[O]=[V] | 95%
15 | CCn1nc(/C=C/c2ccccc2)[n+](=O)c2c(=O)n(C)c(=O)[nH]c21 | 63%
16 | O=C(O)c1ccc([O-])cn1.OO.OO.[K+].[K+].[O]=[V] | 98%
17 | Cn1nc(/C=C/c2ccccc2)nc2c(=O)n(C)c(=O)nc1-2 | 77%
18 | O=C(O)c1ccc(O)c(C=Nc2ccc3oc(-c4cccc(Cl)c4)nc3c2)c1 | 83%
19 | CCn1nc(-c2ccc(Cl)cc2)nc2c(=O)n(C)c(=O)nc1-2 | 64%
20 | O=C(O)c1ccc(O)c(C=Nc2ccc3oc(-c4cc(Cl)ccc4Cl)nc3c2)c1 | 81%
21 | O=C(O)c1ccc(O)c(C=Nc2cccc(-c3nc4ccccc4o3)c2)c1 | 58%
22 | O=C(O)c1ccc(O)c(/C=N/N(CCO)C2=NS(=O)(=O)c3ccccc32)c1 | 66%
23 | COc1ccc(OC)c(N=Cc2cc(C(=O)O)ccc2O)c1 | 69%
24 | CN(N=O)c1ccc(O)c(O)c1 | 33%
25 | O=C1NC(=S)S/C1=C\C=C\c1ccc([N+](=O)[O-])o1 | 100%
26 | O=C([O-])c1ccccn1.OO.OO.[K+].[K+].[O]=[V] | 98%
27 | O=C(O)c1ccc(O)c(C=Nc2ccc3oc(-c4cccc(Cl)c4Cl)nc3c2)c1 | 66%
